Assay results as given in patent US9765085B2, “SHIP1 modulators and methods related thereto” (Aquinox Pharmaceuticals (Canada) Inc., priority 2013, dated 2017).

What follows are compounds tested against T1, His-hSHIP1 enzyme (Homo sapiens, UniProt Q92835) (assay: His-hSHIP1 activity (phosphatase assay, IP4 substrate, Biomol Green)). Details: ratio of initial velocities (IP4 25/IP4 250 μM final) compared with a reference SHIP1 activator; 37° C.
T1 construct: His
T1 sequence (Q92835 1-1189): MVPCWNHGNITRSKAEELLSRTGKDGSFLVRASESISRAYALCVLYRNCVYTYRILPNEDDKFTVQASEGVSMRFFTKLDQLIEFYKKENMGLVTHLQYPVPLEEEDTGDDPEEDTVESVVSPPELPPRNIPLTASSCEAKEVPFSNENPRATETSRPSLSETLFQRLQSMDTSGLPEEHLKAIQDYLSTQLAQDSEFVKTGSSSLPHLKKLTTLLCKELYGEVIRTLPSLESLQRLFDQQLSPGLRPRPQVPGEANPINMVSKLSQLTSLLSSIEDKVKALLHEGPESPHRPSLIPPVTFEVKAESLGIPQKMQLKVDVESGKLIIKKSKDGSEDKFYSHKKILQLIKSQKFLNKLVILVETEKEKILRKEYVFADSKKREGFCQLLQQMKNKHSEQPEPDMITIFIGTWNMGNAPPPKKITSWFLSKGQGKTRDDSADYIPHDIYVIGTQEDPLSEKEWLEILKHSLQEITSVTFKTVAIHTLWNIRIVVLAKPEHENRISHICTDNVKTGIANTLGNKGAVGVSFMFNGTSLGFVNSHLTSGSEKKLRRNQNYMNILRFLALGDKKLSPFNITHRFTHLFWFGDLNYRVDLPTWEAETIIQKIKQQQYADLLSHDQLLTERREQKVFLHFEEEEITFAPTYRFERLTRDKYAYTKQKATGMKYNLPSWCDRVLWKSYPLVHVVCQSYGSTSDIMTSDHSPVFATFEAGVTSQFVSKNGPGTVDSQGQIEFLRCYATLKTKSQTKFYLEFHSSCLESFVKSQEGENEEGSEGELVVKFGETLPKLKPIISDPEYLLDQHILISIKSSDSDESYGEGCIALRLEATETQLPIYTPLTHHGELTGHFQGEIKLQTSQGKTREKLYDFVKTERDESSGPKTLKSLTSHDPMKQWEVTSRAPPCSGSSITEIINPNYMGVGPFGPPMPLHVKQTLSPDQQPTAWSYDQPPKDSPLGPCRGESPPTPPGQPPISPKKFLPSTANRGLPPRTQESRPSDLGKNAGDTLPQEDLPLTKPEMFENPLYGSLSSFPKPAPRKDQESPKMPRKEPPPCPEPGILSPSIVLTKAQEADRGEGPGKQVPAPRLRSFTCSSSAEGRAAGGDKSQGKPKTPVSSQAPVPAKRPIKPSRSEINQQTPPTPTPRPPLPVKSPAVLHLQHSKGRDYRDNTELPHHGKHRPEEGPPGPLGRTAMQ
Assay type: biochemical
Parameters: key: +++: higher than reference or reference - 15%; ++: reference - 16% to reference - 30%; +: reference - 31% or lower; −: inhibitor
Description: Test compounds are dissolved in 95% ethanol to form stock solutions. Before screening, the stock solutions are diluted with Phosphatase Assay Buffer (20 mM Tris-HCL, 10 mM MgCl2 pH 7.5, 0.02% Tween 20) to form working assay solutions that contain 10% ethanol. The assay is carried out on 96-well microtiter plates using a modified procedure of that reported by Ong et al., Blood 110, 1942-1949, 2007 and Yang et al., Org Lett 7, 1073-1076, 2005, both of which references are incorporated herein by reference in their entirety.
A master mix is prepared that contains 50 μL of His-hSHIP1 enzyme (0.4-1.6 ng/μL final), 25 μL of the substrate, IP4 (25 or 250 μM final), and 50 μL of test compound in 3.3% ethanol ([…]). Control blanks are also prepared by replacing His-hSHIP1 enzyme, IP4, or test compounds with Phosphate Assay Buffer. […] Each reaction component is preincubated at 37° C. for 30 min before adding to a 96-well microtiter plate. The master mix is then incubated at 37° C. At time 0, 20, 25 and 30 min, 25 μL of the master mix is removed and transferred to a new 96-well microtiter plate, to which 100 μL of Biomol Green Reagent is added to stop the reaction. After incubating the mixture for 20 min at room temperature for color development, the absorbance is read with SpectraMax Plus 96-well plate reader at a wavelength of 650 nm. Phosphate released is plotted against time to calculate the initial velocities (i.e., slope of the graph) at each IP4 concentration. The initial velocities are baseline corrected and the ratio of initial velocities (IP425/IP4250) is calculated and used to rate the test compounds.
The compound numbers in Table 2 correspond to the compound numbers in Table 1 above. Scoring of the compound is expressed as follows: […]

Q: With `C=C1CC[C@H]2[C@H](CO)[C@@H]([C@@]3(C)Cc4cn[nH]c4C[C@@H]3CO)CC[C@]12C` [compound 21, ((3aS,4R,5S,7aS)-5-((5R,6S)-6-(hydroxymethyl)-5-methyl-4,5,6,7-tetrahydro-1H-indazol-5-yl)-7a-methyl-1-methyleneoctahydro-1H-inden-4-yl)methanol] as the compound, how does the “Scoring (Initial Velocity Ratio)” value read?
A: +

Q: With `C[C@]1([C@H]2CC[C@@]3(C)[C@@H](CC[C@@]3(O)c3nccs3)[C@@H]2CN)CC[C@H](O)C[C@@H]1CO` [compound 20, (1S,3aS,4R,5S,7aS)-4-(aminomethyl)-5-((1R,2S,4S)-4-hydroxy-2-(hydroxymethyl)-1-methylcyclohexyl)-7a-methyl-1-(thiazol-2-yl)octahydro-1H-inden-1-ol] as the compound, how does the “Scoring (Initial Velocity Ratio)” value read?
A: ++

Q: How did the “Scoring (Initial Velocity Ratio)” value turn out when `C[C@]1([C@H]2CC[C@]3(C)C(c4ccco4)=CC[C@H]3[C@@H]2CN)CC[C@H](O)C[C@@H]1CO` [compound 13, (1S,3S,4R)-4-((3aS,6S,7R,7aS)-7-(aminomethyl)-3-(furan-2-yl)-3a-methyl-3a,4,5,6,7,7a-hexahydro-1H-inden-6-yl)-3-(hydroxymethyl)-4-methylcyclohexanol] was run?
A: +

Q: How did the “Scoring (Initial Velocity Ratio)” value turn out when `C[C@]1([C@H]2CC[C@]3(C)C(c4ccccc4)=CC[C@H]3[C@@H]2CN)CC[C@H](O)C[C@@H]1CO.Cl` [compound 10, (1S,3S,4R)-4-((3aS,6S,7R,7aS)-7-(aminomethyl)-3a-methyl-3-phenyl-3a,4,5,6,7,7a-hexahydro-1H-inden-6-yl)-3-(hydroxymethyl)-4-methylcyclohexanol hydrochloride] was run?
A: ++

Q: `C[C@]1([C@H]2CC[C@]3(C)c4ncccc4C[C@H]3[C@@H]2CN)CC[C@H](O)C[C@@H]1CO` [compound 9, (1S,3S,4R)-4-((5aS,6R,7S,9aS)-6-(aminomethyl)-9a-methyl-5a,6,7,8,9,9a-hexahydro-5H-indeno[1,2-b]pyridin-7-yl)-3-(hydroxymethyl)-4-methylcyclohexanol] was tested. Which “Scoring (Initial Velocity Ratio)” value did it give?
A: ++

Q: Which “Scoring (Initial Velocity Ratio)” value does the source give for `C#C[C@]1(O)CC[C@H]2[C@H](CO)[C@@H]([C@@]3(C)CC[C@H](O)C[C@@H]3CO)CC[C@@]21C` [compound 28, (1R,3aS,4R,5S,7aS)-1-ethynyl-5-((1R,2S,4S)-4-hydroxy-2-(hydroxymethyl)-1-methylcyclohexyl)-4-(hydroxymethyl)-7a-methyloctahydro-1H-inden-1-ol] here?
A: ++

Q: For `C[C@]1([C@H]2CCC3=C(C[C@@H](O)[C@@]3(C)c3ccccc3)[C@@H]2CN)CC[C@H](O)C[C@@H]1CO` [compound 19, (1S,2R,4R,5S)-4-(aminomethyl)-5-((1R,2S,4S)-4-hydroxy-2-(hydroxymethyl)-1-methylcyclohexyl)-1-methyl-1-phenyl-2,3,4,5,6,7-hexahydro-1H-inden-2-ol], which “Scoring (Initial Velocity Ratio)” value is on record?
A: ++

Q: Which “Scoring (Initial Velocity Ratio)” value does the source give for `C=C1CC[C@H]2[C@H](CO)[C@@H]([C@@]3(C)CC[C@H](NC(C)=O)C[C@@H]3CO)CC[C@]12C` [compound 32, N-((1S,3S,4R)-3-(hydroxymethyl)-4-((3aS,4R,5S,7aS)-4-(hydroxymethyl)-7a-methyl-1-methyleneoctahydro-1H-inden-5-yl)-4-methylcyclohexyl)acetamide] here?
A: ++

Q: `CN/C(=N\C#N)NC[C@H]1C2=C(CC[C@@H]1[C@@]1(C)CC[C@H](O)C[C@@H]1CO)C(C)(C)CC2` [compound 3, (E)-2-cyano-1-(((4R,5S)-5-((1R,2S,4S)-4-hydroxy-2-(hydroxymethyl)-1-methylcyclohexyl)-1,1-dimethyl-2,3,4,5,6,7-hexahydro-1H-inden-4-yl)methyl)-3-methylguanidine] was tested. Which “Scoring (Initial Velocity Ratio)” value did it give?
A: ++

Q: Which “Scoring (Initial Velocity Ratio)” value does the source give for `C[C@]1([C@H]2CC[C@]3(C)c4[nH]ncc4C[C@H]3[C@@H]2CO)CC[C@H](O)C[C@@H]1CO` [compound 33, (1S,3S,4R)-3-(hydroxymethyl)-4-((4aS,5R,6S,8aS)-5-(hydroxymethyl)-8a-methyl-1,4,4a,5,6,7,8,8a-octahydroindeno[1,2-c]pyrazol-6-yl)-4-methylcyclohexanol] here?
A: +

Q: `CC1(C)CCC2=C1CC[C@H]([C@@]1(C)Cc3cnoc3C[C@@H]1CO)[C@H]2CO` [compound 23, ((5R,6S)-5-((4R,5S)-4-(hydroxymethyl)-1,1-dimethyl-2,3,4,5,6,7-hexahydro-1H-inden-5-yl)-5-methyl-4,5,6,7-tetrahydrobenzo[d]isoxazol-6-yl)methanol] was tested. Which “Scoring (Initial Velocity Ratio)” value did it give?
A: +++

Q: Which “Scoring (Initial Velocity Ratio)” value does the source give for `C[C@]1([C@H]2CC[C@@]3(C)[C@@H](CC[C@@]3(O)c3ccccn3)[C@@H]2CN)CC[C@H](O)C[C@@H]1CO` [compound 17, (1S,3aS,4R,5S,7aS)-4-(aminomethyl)-5-((1R,2S,4S)-4-hydroxy-2-(hydroxymethyl)-1-methylcyclohexyl)-7a-methyl-1-(pyridin-2-yl)octahydro-1H-inden-1-ol] here?
A: −

Q: Which “Scoring (Initial Velocity Ratio)” value does the source give for “(1S,3S,4R)-4-((2R,3S,3aR,3bS,5′R,6S,7R,7aS,8aS)-7-(aminomethyl)-3,3b,5′-trimethyltetradecahydrospiro[indeno[2,1-b]furan-2,2′-pyran]-6-yl)-3-(hydroxymethyl)-4-methylcyclohexanol acetate [compound 14]” here?
A: ++

Q: With `C=C1CC[C@H]2[C@H](CO)[C@@H]([C@@]3(C)Cc4conc4C[C@@H]3CO)CC[C@]12C` [compound 22, ((3aS,4R,5S,7aS)-5-((5R,6S)-6-(hydroxymethyl)-5-methyl-4,5,6,7-tetrahydrobenzo[c]isoxazol-5-yl)-7a-methyl-1-methyleneoctahydro-1H-inden-4-yl)methanol] as the compound, how does the “Scoring (Initial Velocity Ratio)” value read?
A: ++

Q: With `C[C@]1([C@H]2CCC3=C(C[C@@H](O)[C@@]3(C)c3ccccc3)[C@@H]2CO)CC[C@H](O)C[C@@H]1CO` [compound 37, (1S,2R,4R,5S)-5-((1R,2S,4S)-4-hydroxy-2-(hydroxymethyl)-1-methylcyclohexyl)-4-(hydroxymethyl)-1-methyl-1-phenyl-2,3,4,5,6,7-hexahydro-1H-inden-2-ol] as the compound, how does the “Scoring (Initial Velocity Ratio)” value read?
A: +

Q: How did the “Scoring (Initial Velocity Ratio)” value turn out when `C[C@]1([C@H]2CC[C@]3(C)C(c4ccccc4)=CC[C@H]3[C@@H]2CO)CC[C@H](O)C[C@@H]1CO` [compound 25, (1S,3S,4R)-3-(hydroxymethyl)-4-((3aS,6S,7R,7aS)-7-(hydroxymethyl)-3a-methyl-3-phenyl-3a,4,5,6,7,7a-hexahydro-1H-inden-6-yl)-4-methylcyclohexanol] was run?
A: ++

Q: `C=C1CC[C@H]2[C@H](CO)[C@@H]([C@@]3(C)Cc4sc(C)nc4C[C@@H]3CO)CC[C@]12C` [compound 24, ((3aS,4R,5S,7aS)-5-((5S,6R)-5-(hydroxymethyl)-2,6-dimethyl-4,5,6,7-tetrahydrobenzo[d]thiazol-6-yl)-7a-methyl-1-methyleneoctahydro-1H-inden-4-yl)methanol] was tested. Which “Scoring (Initial Velocity Ratio)” value did it give?
A: ++
